From patent US20180346731A1, “Formation of Stable Pyranoanthocyanins, and Uses Thereof as Sources of Natural Color” (Ohio State Innovation Foundation, priority 2017, published 2018)

Legend:
[1] = Colorimetry (CIEL*c*h*, ΔE) of pigment solutions with ascorbic acid; type: physicochemical
Procedure: The semi-purified chokeberry extract, the isolated cyanidin-3-galactoside, and the purified 5-carboxypyranocyanidin-3-galactoside were diluted in pH 3.0 citrate buffer (0.1 M adjusted with HCl) until an absorbance of 1.0 at their respective λmax was reached. Levels of AA of 250, 500, and 1000 mg/L were added using a concentrated ascorbic acid stock solution, and a control consisting of each pigment with the absence of AA was maintained. The control consisted of the pigment in the buffer in the absence of AA. An additional test was performed with the same model juice using hydrogen peroxide, a known degradation product of AA. To determine if AA bleaching was due to formation of H2O2, direct addition of it was investigated. In place of added AA, a 62.2 μL of a 0.3% peroxide solution was added to match the molar equivalency of the 500 mg/L AA level, which was 2.84 mM.
All samples were brought to the same final volume with additional citrate buffer. […] Samples were stored in the dark at 25° C. in an incubator. UV-Vis spectrophotometry, colorimetry, and HPLC analyses were conducted over a 5 day period following the addition of ascorbic acid or hydrogen peroxide. UV-Vis spectral data was collected every hour for the first 8 hours, and then at 12 hr, and daily from that point on for 5 days. […] HPLC analyses were conducted on days 0, 1, 3, and 5. All treatments were run in triplicate.
Using UV-Vis spectral data (5 nm steps, 380-700 nm) in combination with software written for color conversion, absorbance data was translated to CIE-L*c*h*. The calculations for CIE-L*c*h* implemented by the software used CIE relative spectral power distribution for a D65 standard illuminants and 10° observer angle function. Color data is reported as L* (lightness), c* (chroma), and h* (hue angle).
Total color changes (ΔE) were calculated as the color change from day 0 to 5 for each respective treatment, and presented in Table 4.
Numbers are means of 3 replications, followed by (standard deviations). ΔE: total color change from day 0 (control) to day 5.

[2] = Anthocyanin survival of control treatments at pH 2.5 (uHPLC AUC 500-520 nm); type: physicochemical; details: pH 2.5 acidified water, no pyruvic acid, 25° C., day 31
Procedure: FIG. 10: Pyranoanthocyanin yield for anthocyanins (500 μM) subjected to pyruvic acid treatment (×100 M ratio) and anthocyanin survival of control treatments at pH 2.5 acidified water at day 7, 14, and 31. Yield defined as (AUC500-520 nm of PACN at tn/AUC500-520 nm of ACN @t0)*100. Survival defined as (AUC500-520 nm of ACN at tn/AUC500-520 nm of ACN @ t0)*100. Values shown are means (n=3) and bars represent standard deviation.
A uHPLC system (Shimadzu Nexera-i LC-2040C, Maryland, U.S.) coupled with tandem MS (Shimadzu LCMS-8040, Maryland, U.S.) was used in evaluating initial anthocyanin purity and monitoring changes in anthocyanins with and without pyruvic acid treatment over time. A 0.4 mL/min flow rate was used on a Pinnacle DB (Restek Corporation, Bellefonte, Pa.) C18 Column (1.9 μm particle size, 50×2.1 mm length). The column oven was set at 40° C. The following gradient of solvent A (4.5% formic acid) and B (100% acetonitrile) was used: 0% B for the first minute, ramped to 15% B by 10 min. This method was effective for separation of the formed pyranoanthocyanin from anthocyanin for all isolates except cy3rut which coeluted with the formed pyranoanthocyanin. This was observed through MS-MS data. […]
Quantification of pigments was conducted on day 0, 3, 7, 14, and 31 using a standard curve of cyanidin-3-glucoside (Sigma Aldrich, St. Louis, Mo., U.S.) run under the same conditions used for isolates. Molar absorptivities of anthocyanins and carboxypyranoanthocyanidins have been reported as being relatively similar and were thought to provide a basis of confidence in using AUC500-520 nm as a quantitative measure of pyranoanthocyanin yield.
Prior to dilution, the concentrations of the isolated pigment extracts were determined by the pH differential method for subsequent dilution to known concentrations. The isolates were then diluted to 500 μM (expressed as Cyanidin-3-glucoside equivalents) in pH 2.5 deionized water (previously adjusted with HCl) which contained 0.1% potassium sorbate (w/v) and 0.1% sodium benzoate (w/v) to function as preservative agents during storage. […]

[3] = 1000 mg/L AA, listed as cyanidin-3-galactoside

## OC[C@H]1O[C@@H](Oc2cc3c(O)cc(O)cc3[o+]c2-c2ccc(O)c(O)c2)[C@H](O)[C@@H](O)[C@H]1O [Cyanidin-3-galactoside, cyanidin-3-galactoside]
[1]; 250 mg/L AA
  Chroma Day 0: 50.8 (0.2)
  Chroma Day 5: 13.9 (0.7)
  Hue Angle Day 0: 18.7 (0.1) °
  Hue Angle Day 5: 21.9 (1.2) °
  Lightness Day 0: 77.5 ( ).2)
  Lightness Day 5: 93.2 (0.3)
  ΔE Over 5 days: 19.3 (0.3)
[1]; 500 mg/L AA
  Chroma Day 0: 51.8 (0.0)
  Chroma Day 5: 10.5 (0.4)
  Hue Angle Day 0: 18.8 (0.0) °
  Hue Angle Day 5: 51.1 (2.7) °
  Lightness Day 0: 77.0 (0.1)
  Lightness Day 5: 94.4 (0.6)
  ΔE Over 5 days: 23.6 (0.2)
[1]; 1000 mg/L AA
  Chroma Day 0: 50.9 (0.1)
  Chroma Day 5: 13.7 (1.8)
  Hue Angle Day 0: 18.7 (0.1) °
  Hue Angle Day 5: 77.5 (4.5) °
  Lightness Day 0: 77.2 (0.3)
  Lightness Day 5: 94.5 (0.7)
  ΔE Over 5 days: 27.6 (0.7)
[1]; 1000 mg/L AA, 48 hours
  L* after 48 hours: 96.4
[1]; [3]
  Hue Angle Day 0: 18.7 °
  Hue Angle Day 5: 77.5 °
  Lightness Day 0: 77.2
  ΔE Over 5 days: 27.6
[1]; Control, no AA
  Chroma Day 0: 51.2 (0.2)
  Chroma Day 5: 46.5 (2.1)
  Hue Angle Day 0: 18.6 (0.1) °
  Hue Angle Day 5: 15.9 (1.0) °
  Lightness Day 5: 79.4
  ΔE Over 5 days: 2.6 (1.1)
[1]; Control, no AA, mean (SD), n=3
  Lightness Day 0: 77.3 (0.1)
[1]; all levels of AA
  time until significant change in chroma as compared to the control: 2 h
[1]; day 0
  initial hue angle: 16.6 °
[2]
  anthocyanin survival of control treatment: 84%
